Here are results for 19 compounds from US20210395226A1, “SUBSTITUTED ARYL COMPOUND AND PREPARATION METHOD THEREFOR AND USE THEREOF” (SICHUAN KELUN-BIOTECH BIOPHARMACEUTICAL CO., LTD., priority 2018, published 2021).

pKi: −log10 of the molar value. Where two headings read alike, the source gives them in different places.

Experiment [1] has as its target T1, Adenosine A2a receptor (human) membrane (Homo sapiens, UniProt P29274).
T1 construct: purchased PerkinElmer RBHA2AM400UA
The experiment in a line: Determination of competitive inhibition constant (Ki) for adenosine A2a receptor, [3H]-CGS-21680 radioligand. In kind it is binding. The note with it: for Ki(A1)/Ki(A2a): selectivity ratio A1 over A2a. How it is done:
(§1) Test Example 1: Determination of Competitive Inhibition Constant (Ki) for Adenosine A1 and A2a Receptors
Adenosine A2a receptor (human) membrane (PerkinElmer, RBHA2AM400UA),
assay buffer for A2a (50 mM Tris-HCl, 10 mM MgCl2, 1 mM EDTA, pH7.4), used to dilute adenosine A2a receptor (human) membrane (human origin) and [^3H]-CGS-21680; and
wash buffer for A2a (50 mM Tris-HCl, 154 mM NaCl, pH7.4).
(§2) Adenosine A1 receptor membrane was diluted to 0.025 μg/μl with assay buffer for A1, and Adenosine A2a receptor membrane was diluted to 0.05 μg/μl with assay buffer for A2a, so as to obtain Adenosine A1 receptor membrane dilution and Adenosine A2a receptor membrane dilution.
(§3) The compound to be tested and CGS-15943 were diluted with DMSO, and 1 W of the compound to be tested, high value control (0.5% DMSO), low value control (1000 nM CGS-15943) were added to a 96-well plate, and 100 W of Adenosine A1 receptor membrane dilution (containing 2.5 μg of membrane) was added to each well of the 96-well plate to obtain A1 detection plate; following the same steps, 100 W of Adenosine A2a receptor membrane dilution (containing 5.0 μg membrane) was added to each well of the 96-well plate to obtain A2a detection plate.
(§4) To the A1 detection plate, 100 μl of radioisotope-labeled ligand [^3H]-DPCPX (diluted with assay buffer for A1, working concentration of which was 1.0 nM) was added; and to the A2a detection plate, 100 μl of radioisotope-labeled ligand [^3H]-CGS-21680 (diluted with assay buffer for A2a, working concentration of which was 6.0 nM) was added. The A1 and A2a detection plates were sealed with tape, and incubated at room temperature for 1 h and 2 h, respectively.
(§5) Unifilter-96 GF/C filter plates were prepared, 50 μl of 0.3% PEI was added to each well of the Unifilter-96 GF/C filter plates, and the resulting filter plates were incubated at room temperature for not less than 0.5 h.
(§6) After the incubation was completed, the reaction solution was transferred from the A1 detection plate and the A2a detection plate to two Unifilter-96 GF/C filter plates, and washed with pre-cooled wash buffer for A1 and wash buffer for A2a, and then the filter plates were dried, sealed at bottom, then 50 W of Microscint 20 fluid scintillation cocktail was added, and then the filter plates were sealed at top, and counted by MicroBeta2 Reader.
(§7) Inhibition rate %=100−(signal value of test well−signal average value of low value control)/(signal average value of high value control−signal average value of low value control)*100.
(§8) EXCEL XLfit was used to fit IC50.
(§9) The calculation formula for competitive inhibition constant (Ki) was: Ki=IC50/(1+concentration of isotope-labeled ligand/Kd), wherein Kd was the dissociation constant of the isotope-labeled ligand.

The target of experiment [2] is T2, Adenosine A1 receptor (human) membrane (Homo sapiens, UniProt P30542).
T2 construct: purchased PerkinElmer ES-010-M400UA
T2 sequence (P30542 1-326): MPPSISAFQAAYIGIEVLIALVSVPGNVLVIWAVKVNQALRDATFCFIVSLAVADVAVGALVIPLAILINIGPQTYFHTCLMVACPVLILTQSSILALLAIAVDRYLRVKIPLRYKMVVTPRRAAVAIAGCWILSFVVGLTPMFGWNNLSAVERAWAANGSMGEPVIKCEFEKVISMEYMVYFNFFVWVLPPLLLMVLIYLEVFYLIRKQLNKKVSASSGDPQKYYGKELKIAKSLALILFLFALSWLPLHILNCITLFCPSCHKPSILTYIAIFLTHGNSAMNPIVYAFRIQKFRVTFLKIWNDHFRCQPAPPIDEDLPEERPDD
The experiment in a line: Determination of competitive inhibition constant (Ki) for adenosine A1 receptor, [3H]-DPCPX radioligand. In kind it is binding. To be noted: 1.0 nM [3H]-DPCPX. The method, then:
as §1
[^3H]-DPCPX (PerkinElmer, NET974250UC),
Adenosine A1 receptor (human) membrane (PerkinElmer, ES-010-M400UA),
assay buffer for A1 (25 mM HEPES, 5 mM MgCl2, 1 mM CaCl2, 100 mM NaCl, pH7.4), used to dilute adenosine A1 receptor (human) membrane and [^3H]-DPCPX;
wash buffer for A1 (25 mM HEPES, 5 mM MgCl2, 1 mM CaCl2, 100 mM NaCl, pH7.4);
as §2, §3, §4, §5, §6, §7, §8, §9

Setting [3] is: human A2a receptor membrane, 6.0 nM [3H]-CGS-21680, read-out: Ki(A2a).

T1 sequence (P29274 whole entry): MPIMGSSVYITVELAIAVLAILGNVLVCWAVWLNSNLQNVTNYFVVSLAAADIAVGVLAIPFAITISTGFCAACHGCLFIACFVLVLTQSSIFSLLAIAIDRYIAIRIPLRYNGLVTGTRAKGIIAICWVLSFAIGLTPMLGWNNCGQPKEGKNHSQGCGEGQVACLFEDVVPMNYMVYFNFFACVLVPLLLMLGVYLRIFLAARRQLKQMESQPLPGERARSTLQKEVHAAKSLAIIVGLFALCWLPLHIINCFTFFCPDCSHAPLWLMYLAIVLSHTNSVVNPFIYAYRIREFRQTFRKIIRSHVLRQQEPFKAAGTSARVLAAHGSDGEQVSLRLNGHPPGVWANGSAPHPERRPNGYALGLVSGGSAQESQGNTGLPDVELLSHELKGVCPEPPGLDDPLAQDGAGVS

Turning to `Cc1ncnc2ccc(-c3ccc(N)nc3-c3ccc(F)cc3)cc12` [Compound 1, 6-(4-fluorophenyl)-5-(4-methylquinazolin-6-yl)pyridin-2-amine], the pKi in experiment [1] (setting [3]) was 8.02; in experiment [2], 5.49. Further, the “Ki(A1)/Ki(A2a)” value in experiment [1] is 339.0.
Take `Cc1ncnc2ccc(-c3cc(F)c(N)nc3-c3ccc(F)cc3)cc12` [Compound 2, 3-fluoro-6-(4-fluorophenyl)-5-(4-methylquinazolin-6-yl)pyridin-2-amine]: the pKi in experiment [1] (setting [3]) was 8.57; in experiment [2] it was 6.16. Also, the “Ki(A1)/Ki(A2a)” value in experiment [1] is recorded as 258.6.
The corresponding values for `Cc1ncnc2ccc(-c3cnc(N)nc3-c3ccc(F)cc3)cc12` [Compound 3, 4-(4-fluorophenyl)-5-(4-methylquinazolin-6-yl)pyrimidin-2-amine] are 8.80, 6.75 and 111.3.
Turning to `Cc1ncnc2ccc(-c3cc(F)c(NC(=O)N(C)Cc4ccccn4)nc3-c3ccc(F)cc3)cc12` [Compound 4, 3-(3-fluoro-6-(4-fluorophenyl)-5-(4-methylquinazolin-6-yl)pyridin-2-yl)-1-methyl-1-(pyridin-2-ylmethyl)urea], the pKi in experiment [1] was 7.87; in experiment [2], 5.25. For the same compound, in experiment [1], the “Ki(A1)/Ki(A2a)” value was 417.3.
Turning to `CNC(=O)Nc1ncc(-c2ccc3ncnc(C)c3c2)c(-c2ccc(F)cc2)n1` [Compound 5, 1-(4-(4-fluorophenyl)-5-(4-methylquinazolin-6-yl)pyrimidin-2-yl)-3-methylurea], the figures for the pKi in experiment [1] (setting [3]) and in experiment [2] were 7.81 and under 5.10, respectively. Besides, the “Ki(A1)/Ki(A2a)” value in experiment [1] was over 507.5.
The like results for `Cc1ncnc2ccc(-c3cnc(NC(=O)NCc4ccccn4)nc3-c3ccc(F)cc3)cc12` [Compound 6, 1-(4-(4-fluorophenyl)-5-(4-methylquinazolin-6-yl)pyrimidin-2-yl)-3-(pyridine-2-methyl)urea] were, in that order, 7.84, under 5.10 and over 553.6.
Turning to `Cc1ncnc2ccc(-c3cnc(NC(=O)N(C)Cc4ccccn4)nc3-c3ccc(F)cc3)cc12` [Compound 9, 3-(4-(4-fluorophenyl)-5-(4-methylquinazolin-6-yl)pyrimidin-2-yl)-1-methyl-1-(pyridine-2-methyl)urea], the pKi in experiment [1] (setting [3]) was 8.43; in experiment [2], 5.91. Besides, the “Ki(A1)/Ki(A2a)” value in experiment [1] turned out to be 331.8.
Regarding `Cc1ncnc2ccc(-c3cnc(NC(=O)N4CCC(C#N)CC4)nc3-c3ccc(F)cc3)cc12` [Compound 10, 4-cyano-N-(4-(4-fluorophenyl)-5-(4-methylquinazolin-6-yl)pyrimidin-2-yl) piperidine-1-carboxamide], the pKi is 8.33 in experiment [1] (setting [3]) and 6.16 in experiment [2]. In addition, the “Ki(A1)/Ki(A2a)” value in experiment [1] came out at 146.8.
The corresponding values for `Cc1ncnc2ccc(-c3cnc(NC(=O)N(C)c4ccccc4)nc3-c3ccc(F)cc3)cc12` [Compound 12, 3-(4-(4-fluorophenyl)-5-(4-methylquinazolin-6-yl)pyrimidin-2-yl)-1-methyl-1-phenylurea] are 8.06, 5.92 and 137.6.
Regarding `COC1CCN(C(=O)Nc2ncc(-c3ccc4ncnc(C)c4c3)c(-c3ccc(F)cc3)n2)CC1` [Compound 13, N-(4-(4-fluorophenyl)-5-(4-methylquinazolin-6-yl)pyrimidin-2-yl)-4-methoxypiperidine-1-carboxamide], the pKi was 8.01 in experiment [1] (setting [3]) and 5.88 in experiment [2]. Further, the “Ki(A1)/Ki(A2a)” value in experiment [1] was 134.5.
The corresponding values for `Cc1cc(-c2cnc(NC(=O)N(C)Cc3ccccn3)nc2-c2ccc(F)cc2)cc(Cl)n1` [Compound 14, 3-(5-(2-chloro-6-methylpyridin-4-yl)-4-(4-fluorophenyl)pyrimidin-2-yl)-1-methyl-1-(pyridin-2-ylmethyl)urea] are 8.09, 5.27 and 656.1.
As to `CN(Cc1ccccn1)C(=O)Nc1ncc(-c2cc(Cl)nc(C(F)(F)F)c2)c(-c2ccc(F)cc2)n1` [Compound 16, 3-(5-(2-chloro-6-(trifluoromethyl)pyridin-4-yl)-4-(4-fluorophenyl)pyrimidin-2-yl)-1-methyl-1-(pyridin-2-ylmethyl)urea], the pKi in experiment [1] (setting [3]) was 7.67; in experiment [2] it was 5.11. Moreover, the “Ki(A1)/Ki(A2a)” value in experiment [1] is 361.6.
The like results for `Cc1cc(-c2cnc(N)nc2-c2ccc(F)cc2)cc(Cl)n1` [Compound 17, 5-(2-chloro-6-methylpyridin-4-yl)-4-(4-fluorophenyl)pyrimidin-2-amine] were, in that order, 8.34, 6.69 and 44.5.
With `Cc1cc(-c2cnc(NC(=O)N3CCC(C#N)CC3)nc2-c2ccc(F)cc2)cc(Cl)n1` [Compound 18, N-(5-(2-chloro-6-methylpyridin-4-yl)-4-(4-fluorophenyl)pyrimidin-2-yl)-4-cyanopiperidine-1-carboxamide], the pKi in experiment [1] (setting [3]) was 7.72; in experiment [2] it was 5.51. The “Ki(A1)/Ki(A2a)” value in experiment [1] was 162.5.
The corresponding values for `Cc1cc(Cl)cc(-c2cnc(NC(=O)N3CCC(N4CCCCC4)CC3)nc2-c2ccc(F)cc2)c1` [Compound 21, N-(5-(3-chloro-5-methylphenyl)-4-(4-fluorophenyl)pyrimidin-2-yl)-[1,4′-dipiperidine]-1′-carboxamide] are 8.14, 5.33 and 639.1.
The corresponding values for `Cc1cc(Cl)cc(-c2cnc(NC(=O)N3CCC(N4CCCCC4)CC3)nc2-c2ccc(C)o2)c1` [Compound 22, N-(5-(3-chloro-5-methylphenyl)-4-(5-methylfuran-2-yl)pyrimidin-2-yl)-[1,4′-bipiperidine]-1′-carboxamide] are 8.18, 5.80 and 240.7.
Regarding `Cc1ncnc2ccc(-c3nnc(NC(=O)N(C)Cc4ccccn4)nc3-c3ccc(F)cc3)cc12` [Compound 24, 3-(5-(4-fluorophenyl)-6-(4-methylquinazolin-6-yl)-1,2,4-triazolin-3-yl)-1-methyl-1-(pyridine-2-methyl)urea], in experiment [1], the negative-log Ki (pKi) is 7.57 and the “Ki(A1)/Ki(A2a)” value turned out to be 139.1. In addition, the pKi in experiment [2] was 5.43.
As to `Cc1ccc(-c2nc(NC(=O)N(C)Cc3ccccn3)nnc2-c2ccc3ncnc(C)c3c2)o1` [Compound 25, 1-methyl-3-(5-(5-methylfuran-2-yl)-6-(4-methylquinazolin-6-yl)-1,2,4-triazin-3-yl)-1-(pyridin-2-yl-methyl)urea], in experiment [1], the pKi is 8.41 and the “Ki(A1)/Ki(A2a)” value amounted to 45.7. In experiment [2], this compound gave a pKi of 6.75.
`Cc1cc(-c2nnc(NC(=O)N3CCC(N4CCCCC4)CC3)nc2-c2ccc(C)o2)cc(Cl)n1` [Compound 26, N-(6-(2-chloro-6-methylpyridin-4-yl)-5-(5-methylfuran-2-yl)-1,2,4-triazin-3-yl)-[1,4′-bipiperidine]-1′-carboxamide]: the figures for the pKi in experiment [1] (setting [3]) and in experiment [2] were 8.00 and 5.40, respectively. For the same compound, the “Ki(A1)/Ki(A2a)” value in experiment [1] was determined as 403.8.
